Data from the NIST ThermoML archive (doi:10.1016/j.tca.2016.12.008).
Where “and” joins values, the source holds several entries; their conditions need not be identical. Identical values can stand only once. Numbers after ± are expanded uncertainties.

Columns and labels:
[1] = for Normal melting temperature: DTA
[2] = Molar enthalpy of transition or fusion; conditions: Crystal; DSC

SMILES	Normal melting temperature ([1]; Crystal)	Molar enthalpy of transition or fusion [2] [kcal/mol]	mass density ([1]; 293 K, 101.33 kPa, Crystal, X-ray diffraction) [kg/m3]	Glass transition temperature ([1]; Glass, DSC) [°C]	Normal melting temperature ([1]; Crystal 1) [°C]	Triple point temperature ([1]; Crystal 2, DSC) [K]
Oc1ccc2ccccc2c1-c1c(O)ccc2ccccc12 [(S)-(1,1'-binaphthalene)-2,2'-diol]	209.20 ± 0.5 °C and 208.00 ± 0.5 °C	7.39 ± 0.167				
Oc1ccc2ccccc2c1-c1c(O)ccc2ccccc12 [(1,1'-binaphthalene)-2,2'-diol]	215.40 ± 0.5 °C	7.46 ± 0.215				
CC(C)(C)C(=O)Oc1ccc2ccccc2c1-c1c(OC(=O)C(C)(C)C)ccc2ccccc12	156.20 ± 0.9 °C and 155.50 ± 0.5 °C	6.81 ± 0.191	1173 ± 6	25.00 ± 2		
CC(C)(C)C(=O)Oc1ccc2ccccc2c1-c1c(OC(=O)C(C)(C)C)ccc2ccccc12 [(1,1'-binaphthalene)-2,2'-diyl bis(2,2-dimethylpropanoate)]					123.80 ± 0.5	389.55 ± 1.3
